Tested on: Human dermal fibroblasts
Assay: Stimulation of fibroblast proliferation by PDGF and FGFb (CellTiter 96 Aqueous One, absorbance 490 nm)
Format: cell-based
Conditions: 24 h, compared to the control (untreated = 100.00)
Experimental: Human dermal fibroblasts from a single donor were obtained from Cascade. At the 7rd passage, cells were seeded in 96 well plates and cultured in Dulbecco's modified Eagle medium DMEM (Gibco BRL, Gaithersburg, USA) supplemented with 10% foetal bovine serum (FBS, PAA, Linz, Austria), […] L-glutamine (Gibco) and 1% penicillin/streptomycin (Gibco). All cell culture was performed at […] in 5% CO2 and 95% air. This fibroblast culture was incubated by two growth factors ([…] and FGFb) at various concentrations for 24 h. After 24 hours incubation, 200 μL dosed media from 96-well plate were removed. CellTiter 96 Aqueous One Solution Reagent was used as described by the manufacturer. The absorbance at 490 nm was recorded using a plate reader to evaluate cell proliferation. The controls were the non treated cells. The experiment was conducted in 8 times by concentration.

Substance	Stimulation (%) of fibroblast proliferation (1 ng/ml) [%]	Stimulation (%) of fibroblast proliferation (10 ng/ml) [%]	Stimulation (%) of fibroblast proliferation (30 ng/ml) [%]
FGFb (157 aa): Basic Fibroblast Growth Factor (157 aa), growth factor added to fibroblast culture	141.22	149.20	–
PDGF	107.20	154.37	185.58
